Measured values as given in patent publication US8541476B2, “Compounds for treatment of malignant tumors” (The Trustees of the University of Pennsylvania, priority 2007, dated 2013).

Assays:
Type in all cases: cell-based, human
[1] = tested on: U251 glioma cell line; test: Chemical library radiosensitizer screen (MTS assay, paired plates 4 Gy / unirradiated); conditions: U251, 8 hours at 2.5 μM, MTS four days later
Method: Six hundred U251 cells were plated per well in 96 well plates. Cells in each well were then treated with a different compound from the Nanosyn library for 8 hours at 2.5 μM concentration. Treatment was performed with paired 96-well plates; one plate was exposed to 4 Gy and the other plate was an unirradiated control. One hour after irradiation, the medium was replaced with fresh medium alone. Four days later, the MTS assay was used to evaluate cell survival. Absorbance was measured at 490 nm with a microplate reader (Sprectramax, Molecular Devices, Sunnyvale, Calif.). Radiosensitivity factors (RSF) were calculated according to the following formula for each compound tested with the assay:
[formula] Survival Assays
The small chemical compound chemical library (Nanosyn, Inc.) was replicated in a 96-well format and compounds were dissolved in DMSO at a concentration of […]. Using the U251 glioma cell line, the radiosensitizing capability of 870 compounds was initially assayed within the library. The assay was optimized in terms of the number of cells, radiation dose used, and the number of days incubated so that a decrease in survival could be assessed. […] The structure of three novel radiosensitizing compounds is depicted in FIG. 1B.

[2] = tested on: U251 glioma cells; test: Clonogenic survival assay, U251 cells
Method: (§1) Clonogenic survival assays were performed as described by Koumenis, et al., 2002, (Mol. Cell Biol. 22:7405-16), which reference is incorporated herein in its entirety. U251, HT-29, or A549 cells were plated at different densities in triplicate, treated with NS-123 or DMSO (alone) and irradiated 4, 8, or 12 hours later with a range of doses using ^137Cs γ-rays at a dose rate of ˜4 Gy/minute (min). One hour after irradiation, the medium was replaced with fresh medium without NS-123 or DMSO. The cells were fixed 7-14 days after IR and stained with crystal violet. Colonies greater than 50 cells were then counted and normalized against the non-irradiated controls for each treatment. […] NHA cells were plated in 24-well plates in quadruplicate at equal density, treated with equal volumes of NS-123 or DMSO (alone) and irradiated as described above. One hour after irradiation, the medium was replaced with fresh ABM. Five days later, the MTS assay was used to evaluate cell survival as above.
The effects of μM doses of NS-123 on clonogenic survival of U251 cells were first determined without ionizing radiation (IR). […] Treatment with a 5 μM dose for 12 hours caused a modest (30%), but statistically significant decrease in survival.
Next, the dose-dependent radiosensitizing effects of NS-123 (2.5 μM and 5.0 μM concentration) in U251 cells was determined (FIG. 4A). […] Therefore, NS-123 can act as a true radiosensitizer at low μM concentrations. Corresponding Dose Enhancement Ratios (DER) at 0.1 survival were: 1.3 (2.5 μM NS-123) and 2.0 (5.0 μM NS-123). The time-dependent radiosensitizing effects of 5.0 μM NS-123 in U251 cells was then investigated. […] Corresponding DER at 0.1 survival were: 1.2 (4 hour preincubation with NS-123), 1.4 (8 hour) and 1.9 (12 hour).

[3] = tested on: A549 non-small cell lung cancer cells; test: Clonogenic survival assay, A549 cells; conditions: A549, 5 μM for 12 hours prior to IR
Method: as §1
To exclude the possibility that the radiosensitizing effect of NS-123 was specific to a single cell line, the radiosensitizing effect of NS-123 was tested on additional cell lines of different tissue origin. Clonogenic survival assays were performed. […]

[4] = tested on: γ-H2AX, P-CHK2, P-ATM, P-DNA-PKcs in U251 cells; test: Immunoblotting of dsDNA damage-dependent signaling after IR; conditions: U251, 30 μM 4 hours prior to IR, 6 hours after IR
Method: Following treatments, whole cell and nuclear extracts were prepared. Equal lysate volumes were loaded on 15% and 12% SDS-PAGE gels to assay for γ-H2AX and P-CHK2 proteins, respectively. To assay for P-ATM and P-DNA-PKcs protein, 30-50 μg of nuclear protein were diluted with an equal volume of 2×SDS and resolved with 6% SDS-PAGE gels. Proteins were transferred to polyvinylidene difluoride (PVDF) membranes and then incubated with either anti-γ-H2AX antibody (1:5000; Upstate, Charlottesville, Va.), anti-P-CHK2 antibody (1:1000; Cell Signaling, Beverly, Mass.), anti-phospho-ATM (pSer^1981) antibody (1:300 Calbiomchem, San Diego, Calif.), or anti-phospho-DNA-PKcs (T2609) antibody (1:500; Abcam, Cambridge, Mass.). To confirm equivalent loading and protein transfer, membranes were probed with mouse anti-human β-actin monoclonal antibody (Sigma) or anti-DNA-PKcs monoclonal antibody (25-4 at 1:5000; NeoMarkers, Fremont, Calif.). All membranes were then incubated with horseradish peroxidase-conjugated anti-mouse or anti-rabbit secondary antibodies (Santa Cruz Biotechnology). Immunoreactive bands were detected using ECL Plus chemiluminescence (Amersham Biosciences).
The levels of γ-H2AX, P-CHK2, P-ATM, and P-DNA-PKcs were assayed in U251 cells by immunoblotting at various time points after IR. Cells were treated with DMSO (control) or 30 μM NS-123 for 4 hours prior to IR. […]

CCC(=O)c1ccc(Br)c([N+](=O)[O-])c1 [NS-123, 4′-bromo-3′-nitropropiophenone]
average Radiosensitivity factor (RSF) [1]: 4.62
clonogenic survival without IR ([2]; U251, 2.5 μM for 12 hours, no IR): did not cause any significant decrease in survival
Dose Enhancement Ratio (DER) at 0.1 survival ([2]; U251, 2.5 μM, 12 hours before IR): 1.3
radiosensitization ([2]; U251, 2.5 μM, IR dose of 2 Gy): Radiosensitization was evident
decrease in clonogenic survival without IR ([2]; U251, 5 μM for 12 hours, no IR): 30%
Dose Enhancement Ratio (DER) at 0.1 survival ([2]; U251, 5.0 μM, 4 hour preincubation): 1.2
Dose Enhancement Ratio (DER) at 0.1 survival ([2]; U251, 5.0 μM, 8 hour preincubation): 1.4
Dose Enhancement Ratio (DER) at 0.1 survival ([2]; U251, 5.0 μM, 12 hour preincubation (time-response, FIG. 4B)): 1.9
Dose Enhancement Ratio (DER) at 0.1 survival ([2]; U251, 5.0 μM, 12 hours before IR (dose-response, FIG. 4A)): 2.0
loss of viability without IR, time-response ([2]; U251, 5 μM, various times, no IR): did not induce any significant loss of viability unless it was administered for 12 hours
radiosensitization, high-density plated cells ([2]; U251 plated at high density, 30 μM 4 hour versus 5 μM 12 hour on low-density cells (data not shown)): comparable radiosensitization
DER at 0.1 survival [3]: 1.4
levels of γ-H2AX, P-CHK2, P-DNA-PKcs and P-ATM [4]: substantially higher levels
